Reference: patent US10047096B2, “Substituted pyridobenzodiazepinone-derivatives and use thereof” (Bayer Pharma Aktiengesellschaft, priority 2014, dated 2018)
Structures can show the parent of a compound that is named as a salt.

Target: human PDGFRβ (Homo sapiens (Human), UniProt P09619)
Experiment: PDGFRβ kinase assay (PDGFRβ-HTRF)
Type: biochemical
Settings: 10 μM ATP; some mean values from multiple determinations
Outline: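 GST-fused human PDGFRβ fragment (R561-L1106) from Sf9 cells was preincubated 15 min with compound in 50 mM HEPES pH 7.5, 10 mM MgCl2, 2.5 mM DTT, 0.01% Triton X-100; substrate was biotinylated poly-Glu,Tyr (4:1).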

Chain of human PDGFRβ (P09619 561-1106): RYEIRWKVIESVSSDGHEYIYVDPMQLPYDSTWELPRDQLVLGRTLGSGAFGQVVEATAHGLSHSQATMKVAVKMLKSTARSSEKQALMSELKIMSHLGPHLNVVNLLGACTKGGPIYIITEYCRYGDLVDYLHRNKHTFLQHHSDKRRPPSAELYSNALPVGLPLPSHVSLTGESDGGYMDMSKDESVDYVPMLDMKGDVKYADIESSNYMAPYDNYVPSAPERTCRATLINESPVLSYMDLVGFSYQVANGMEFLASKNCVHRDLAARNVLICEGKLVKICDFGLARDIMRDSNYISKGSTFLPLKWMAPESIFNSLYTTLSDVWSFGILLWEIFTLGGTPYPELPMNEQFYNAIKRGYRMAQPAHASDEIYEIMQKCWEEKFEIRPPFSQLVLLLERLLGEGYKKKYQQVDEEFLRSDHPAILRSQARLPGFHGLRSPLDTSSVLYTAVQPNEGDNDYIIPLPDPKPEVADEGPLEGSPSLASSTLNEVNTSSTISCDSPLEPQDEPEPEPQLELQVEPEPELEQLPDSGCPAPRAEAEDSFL

Row | SMILES | IC50
1 | Cc1cc(F)c(Nc2ccnc3c2C(=O)Nc2cc(C(=O)N4CCC(CCO)CC4)ccc2N3)cc1O [Example 161, 4-[(2-Fluoro-5-hydroxy-4-methylphenyl)amino]-8-{[4-(2-hydroxyethyl)piperidin-1-yl]carbonyl}-6,11-dihydro-5H-pyrido[2,3-b][1,5]benzodiazepin-5-one] | 10.7 nM
2 | O=C1Nc2cc(CN3CCC(O)CC3)ccc2Nc2nccc(Nc3cc(O)c(Cl)cc3F)c21 [Example 175, 4-[(4-Chloro-2-fluoro-5-hydroxyphenyl)amino]-8-[(4-hydroxypiperidin-1-yl)methyl]-6,11-dihydro-5H-pyrido[2,3-b][1,5]benzodiazepin-5-one] | 1.26 nM
3 | Cc1cc(F)c(Nc2ccnc3c2C(=O)Nc2cc(CNC[C@@H]4CCN(C(=O)OC(C)(C)C)C[C@H]4O)ccc2N3)cc1O [Example 176, tert-Butyl (3S,4S)-4-{[({4-[(2-fluoro-5-hydroxy-4-methylphenyl)amino]-5-oxo-6,11-dihydro-5H-pyrido[2,3-b][1,5]benzodiazepin-8-yl}methyl)amino]methyl}-3-hydroxypiperidine-1-carboxylate] | 3.45 nM
4 | Cc1cc(F)c(Nc2ccnc3c2C(=O)Nc2cc(C(=O)N4CCC(O)CC4)ccc2N3)cc1O [Example 178, 4-[(2-Fluoro-5-hydroxy-4-methylphenyl)amino]-8-[(4-hydroxypiperidin-1-yl)carbonyl]-6,11-dihydro-5H-pyrido[2,3-b][1,5]benzodiazepin-5-one] | 14.8 nM
5 | Cc1cc(F)c(Nc2ccnc3c2C(=O)Nc2cc(CN4CCC5(O)CCCCC5C4)ccc2N3)cc1O (stereo not shown) [Example 183, 4-[(2-Fluoro-5-hydroxy-4-methylphenyl)amino]-8-[(4a-hydroxyoctahydroisoquinolin-2(1H)-yl)methyl]-6,11-dihydro-5H-pyrido[2,3-b][1,5]benzodiazepin-5-one] | 1.2 nM
6 | Cc1cc(F)c(Nc2ccnc3c2C(=O)Nc2cc(CN[C@@H](CO)Cc4cnc[nH]4)ccc2N3)cc1O [Example 184, 4-[(2-Fluoro-5-hydroxy-4-methylphenyl)amino]-8-({[(2R)-1-hydroxy-3-(1H-imidazol-5-yl)propan-2-yl]amino}methyl)-6,11-dihydro-5H-pyrido[2,3-b][1,5]benzodiazepin-5-one] | 1.62 nM
7 | COCCOCCOCCOCCOCCOCCOCCOCCNCc1ccc2c(c1)NC(=O)c1c(Nc3cc(O)c(C)cc3F)ccnc1N2 [Example 185, 4-[(2-Fluoro-5-hydroxy-4-methylphenyl)amino]-8-(2,5,8,11,14,17,20,23-octaoxa-26-azaheptacosan-27-yl)-6,11-dihydro-5H-pyrido[2,3-b][1,5]benzodiazepin-5-one] | 25 nM
8 | Cc1cc(F)c(Nc2ccnc3c2C(=O)Nc2cc(CN4CC(=O)N(C(C)C)C(C)(C)C4)ccc2N3)cc1O [Example 196, 4-[(2-Fluoro-5-hydroxy-4-methylphenyl)amino]-8-[(4-isopropyl-3,3-dimethyl-5-oxopiperazin-1-yl)methyl]-6,11-dihydro-5H-pyrido[2,3-b][1,5]benzodiazepin-5-one] | 9.38 nM
9 | Cc1cc(F)c(Nc2ccnc3c2C(=O)Nc2cc(CN4CCNCC4)ccc2N3)cc1O [Example 197, 4-[(2-Fluoro-5-hydroxy-4-methylphenyl)amino]-8-(piperazin-1-ylmethyl)-6,11-dihydro-5H-pyrido[2,3-b][1,5]benzodiazepin-5-one] | 0.861 nM
10 | CCN(CCN(C)C)Cc1ccc2c(c1)NC(=O)c1c(Nc3cc(O)c(C)cc3F)ccnc1N2 [Example 199, 8-({[2-(Dimethylamino)ethyl](ethyl)amino}methyl)-4-[(2-fluoro-5-hydroxy-4-methylphenyl)amino]-6,11-dihydro-5H-pyrido[2,3-b][1,5]benzodiazepin-5-one] | 1.31 nM
11 | CCN(CCN)Cc1ccc2c(c1)NC(=O)c1c(Nc3cc(O)c(C)cc3F)ccnc1N2 [Example 200, 8-{[(2-Aminoethyl)(ethyl)amino]methyl}-4-[(2-fluoro-5-hydroxy-4-methylphenyl)amino]-6,11-dihydro-5H-pyrido[2,3-b][1,5]benzodiazepin-5-one] | 0.727 nM
12 | Cc1cc(F)c(Nc2ccnc3c2C(=O)Nc2cc(CN(C)C[C@@H](C)O)ccc2N3)cc1O [Example 201, 4-[(2-Fluoro-5-hydroxy-4-methylphenyl)amino]-8-({[(2R)-2-hydroxypropyl](methyl)amino}methyl)-6,11-dihydro-5H-pyrido[2,3-b][1,5]benzodiazepin-5-one] | 1.35 nM
13 | Cc1cc(F)c(Nc2ccnc3c2C(=O)Nc2cc(CN(C)CCN(C)C)ccc2N3)cc1O [Example 203, 8-({[2-(Dimethylamino)ethyl](methyl)amino}methyl)-4-[(2-fluoro-5-hydroxy-4-methylphenyl)amino]-6,11-dihydro-5H-pyrido[2,3-b][1,5]benzodiazepin-5-one] | 1.87 nM
14 | Cc1cc(F)c(Nc2ccnc3c2C(=O)Nc2cc(CN4CCC(N(C)C)CC4)ccc2N3)cc1O [Example 211, 8-{[4-(Dimethylamino)piperidin-1-yl]methyl}-4-[(2-fluoro-5-hydroxy-4-methylphenyl)amino]-6,11-dihydro-5H-pyrido[2,3-b][1,5]benzodiazepin-5-one] | 1.94 nM
15 | Cc1cc(F)c(Nc2ccnc3c2C(=O)Nc2cc(CN4CCC[C@@H](N)C4)ccc2N3)cc1O [Example 212, 8-{[(3R)-3-Aminopiperidin-1-yl]methyl}-4-[(2-fluoro-5-hydroxy-4-methylphenyl)amino]-6,11-dihydro-5H-pyrido[2,3-b][1,5]benzodiazepin-5-one] | 0.829 nM

Second part, the compound after the results:

Row | IC50 | SMILES
16 | 3.71 nM | Cc1cc(F)c(Nc2ccnc3c2C(=O)Nc2cc(CN4CC5CC5C4CO)ccc2N3)cc1O (stereo not drawn) [Example 164, 4-[(2-Fluoro-5-hydroxy-4-methylphenyl)amino]-8-{[cis-2-(hydroxymethyl)-3-azabicyclo[3.1.0]hex-3-yl]methyl}-6,11-dihydro-5H-pyrido[2,3-b][1,5]benzodiazepin-5-one]
17 | 1.31 nM | Cc1cc(F)c(Nc2ccnc3c2C(=O)Nc2cc(CNCCO)ccc2N3)cc1O [Example 167, 4-[(2-Fluoro-5-hydroxy-4-methylphenyl)amino]-8-{[(2-hydroxyethyl)amino]methyl}-6,11-dihydro-5H-pyrido[2,3-b][1,5]benzodiazepin-5-one]
18 | 4.11 nM | CC[C@@H](C)[C@@H](CO)NCc1ccc2c(c1)NC(=O)c1c(Nc3cc(O)c(C)cc3F)ccnc1N2 [Example 172, 4-[(2-Fluoro-5-hydroxy-4-methylphenyl)amino]-8-({[(2S,3R)-1-hydroxy-3-methylpentan-2-yl]amino}methyl)-6,11-dihydro-5H-pyrido[2,3-b][1,5]benzodiazepin-5-one]
19 | 4.41 nM | Cc1cc(F)c(Nc2ccnc3c2C(=O)Nc2cc(CN[C@@H](CO)C(N)=O)ccc2N3)cc1O [Example 173, N^2-({4-[(2-Fluoro-5-hydroxy-4-methylphenyl)amino]-5-oxo-6,11-dihydro-5H-pyrido[2,3-b][1,5]benzodiazepin-8-yl}methyl)-L-serinamide]
20 | 2.43 nM | Cc1cc(F)c(Nc2ccnc3c2C(=O)Nc2cc(C(=O)N[C@H]4CC[C@H](O)CC4)ccc2N3)cc1O [Example 180, 4-[(2-Fluoro-5-hydroxy-4-methylphenyl)amino]-N-(trans-4-hydroxycyclohexyl)-5-oxo-6,11-dihydro-5H-pyrido[2,3-b][1,5]benzodiazepine-8-carboxamide]
21 | 1.75 nM | Cc1cc(F)c(Nc2ccnc3c2C(=O)Nc2cc(CNC4CCC4)ccc2N3)cc1O [Example 188, 8-[(Cyclobutylamino)methyl]-4-[(2-fluoro-5-hydroxy-4-methylphenyl)amino]-6,11-dihydro-5H-pyrido[2,3-b][1,5]benzodiazepin-5-one]
22 | 2.01 nM | Cc1cc(F)c(Nc2ccnc3c2C(=O)Nc2cc(CNC4CC(F)(F)C4)ccc2N3)cc1O [Example 189, 8-{[(3,3-Difluorocyclobutyl)amino]methyl}-4-[(2-fluoro-5-hydroxy-4-methylphenyl)amino]-6,11-dihydro-5H-pyrido[2,3-b][1,5]benzodiazepin-5-one]
23 | 1.22 nM | Cc1cc(F)c(Nc2ccnc3c2C(=O)Nc2cc(CNC4CC(OC(C)C)C4)ccc2N3)cc1O (stereo not shown) [Example 190, 4-[(2-Fluoro-5-hydroxy-4-methylphenyl)amino]-8-{[(3-isopropoxycyclobutyl)amino]methyl}-6,11-dihydro-5H-pyrido[2,3-b][1,5]benzodiazepin-5-one]
24 | 0.626 nM | CCOC(=O)[C@H]1C[C@@H](NCc2ccc3c(c2)NC(=O)c2c(Nc4cc(O)c(C)cc4F)ccnc2N3)C1 [Example 191, cis-Ethyl 3-[({4-[(2-fluoro-5-hydroxy-4-methylphenyl)amino]-5-oxo-6,11-dihydro-5H-pyrido[2,3-b][1,5]benzodiazepin-8-yl}methyl)amino]cyclobutanecarboxylate]
25 | 1.61 nM | CCOC(=O)[C@H]1C[C@H](NCc2ccc3c(c2)NC(=O)c2c(Nc4cc(O)c(C)cc4F)ccnc2N3)C1 [Example 192, trans-Ethyl 3-[({4-[(2-fluoro-5-hydroxy-4-methylphenyl)amino]-5-oxo-6,11-dihydro-5H-pyrido[2,3-b][1,5]benzodiazepin-8-yl}methyl)amino]cyclobutanecarboxylate]
26 | 1.56 nM | Cc1cc(F)c(Nc2ccnc3c2C(=O)Nc2cc(CN[C@H]4C[C@H](C(=O)O)C4)ccc2N3)cc1O [Example 195, trans-3-[({4-[(2-Fluoro-5-hydroxy-4-methylphenyl)amino]-5-oxo-6,11-dihydro-5H-pyrido[2,3-b][1,5]benzodiazepin-8-yl}methyl)amino]cyclobutanecarboxylic acid]
27 | 1.03 nM | Cc1cc(F)c(Nc2ccnc3c2C(=O)Nc2cc(CN4C[C@@H](O)[C@@H](O)C4)ccc2N3)cc1O [Example 210]

Same assay, conditions: 10 μM ATP; some mean values from multiple determinations; hydrochloride

Row | SMILES | IC50
28 | CCN(CC)Cc1ccc2c(c1)NC(=O)c1c(Nc3cc(O)c(C)cc3F)ccnc1N2 [Example 193, 8-[(Diethylamino)methyl]-4-[(2-fluoro-5-hydroxy-4-methylphenyl)amino]-6,11-dihydro-5H-pyrido[2,3-b][1,5]benzodiazepin-5-one hydrochloride] | 3.22 nM
